Data reported in US11964953B2, “Substituted aminothiazoles as DGKzeta inhibitors for immune activation” (Bayer Aktiengesellschaft, priority 2020, dated 2024).

Target: human DGKζ (Homo sapiens (Human), UniProt Q13574)
Test: Human DGKζ kinase activity inhibition assay (ADP-Glo)
Assay type: biochemical
Conditions: in vitro human DGKζ kinase activity inhibition assay; read-out: IC50
Summary of the method: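 ADP-Glo luminescence, reflecting ADP produced, served as the readout of activity. Full-length human DGKζ, FLAG-tagged at the C-terminus and insect-cell expressed, was used; lipid substrate mix was sonicated with octyl-β-D-glucopyranoside in 50 mM MOPS pH 7.4.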

human DGKζ, sequence (Q13574 other isoform, or with tags, fused parts or gaps): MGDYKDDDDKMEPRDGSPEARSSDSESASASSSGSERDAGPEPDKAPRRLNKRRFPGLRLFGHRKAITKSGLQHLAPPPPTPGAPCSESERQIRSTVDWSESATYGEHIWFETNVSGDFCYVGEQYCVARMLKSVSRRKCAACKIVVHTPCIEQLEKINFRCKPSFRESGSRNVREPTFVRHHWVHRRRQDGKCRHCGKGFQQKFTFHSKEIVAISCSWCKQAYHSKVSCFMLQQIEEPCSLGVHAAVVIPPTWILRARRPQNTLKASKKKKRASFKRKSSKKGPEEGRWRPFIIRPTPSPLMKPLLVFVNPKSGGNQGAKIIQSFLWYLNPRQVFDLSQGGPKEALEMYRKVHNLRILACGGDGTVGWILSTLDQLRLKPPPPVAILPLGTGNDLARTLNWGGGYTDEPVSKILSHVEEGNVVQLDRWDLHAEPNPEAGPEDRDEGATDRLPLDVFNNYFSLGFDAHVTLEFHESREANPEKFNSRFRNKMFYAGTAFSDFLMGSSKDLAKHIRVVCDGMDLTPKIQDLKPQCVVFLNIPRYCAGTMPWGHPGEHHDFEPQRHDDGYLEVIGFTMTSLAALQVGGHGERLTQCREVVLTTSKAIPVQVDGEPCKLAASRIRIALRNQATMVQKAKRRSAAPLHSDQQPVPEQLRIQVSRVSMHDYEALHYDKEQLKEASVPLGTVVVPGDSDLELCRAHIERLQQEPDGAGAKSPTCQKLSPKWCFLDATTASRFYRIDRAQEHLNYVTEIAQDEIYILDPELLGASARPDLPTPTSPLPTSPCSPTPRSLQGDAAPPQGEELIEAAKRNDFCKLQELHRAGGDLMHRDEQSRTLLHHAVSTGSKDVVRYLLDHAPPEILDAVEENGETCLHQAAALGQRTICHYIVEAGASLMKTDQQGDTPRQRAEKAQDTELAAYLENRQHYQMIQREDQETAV

`CC1CCCN(C(=O)COc2ccc(C(=O)c3sc(N(c4ccc(F)cc4)C(C)C(N)=O)nc3N)cc2)C1` (racemic) [Example 128, 2-(N-[4-amino-5-[4-[2-(3-methyl-1-piperidyl)-2-oxo-ethoxy]benzoyl]thiazol-2-yl]-4-fluoro-anilino)propanamide] and `CC1CCN(C(=O)COc2ccc(C(=O)c3sc(N(c4ccc(F)cc4)C(C)C(N)=O)nc3N)cc2)CC1` (racemic) [Example 129, rac-2-(N-[4-amino-5-(4-[2-(4-methyl-1-piperidyl)-2-oxo-ethoxy]benzoyl]thiazol-2-yl]-4-fluoro-anilino)propanamide] are within 1.5-fold of each other in IC50: 72.2 nM for the first, 97.1 nM for the second.

Compared with `CC(C(N)=O)N(c1ccc(F)cc1)c1nc(N)c(C(=O)c2ccc(NC(=O)OCc3ccccc3)cc2)s1` (single isomer, unassigned) [Example 169.2, Benzyl N-[4-[4-amino-2-(N-(2-amino-1-methyl-2-oxo-ethyl)-4-fluoro-anilino)thiazole-5-carbonyl]phenyl]carbamate], `CC(C(N)=O)N(c1ccc(F)cc1)c1nc(N)c(C(=O)c2ccc(C(=O)NCc3ccccc3)cc2)s1` (racemic) [Example 262, rac-4-[4-amino-2-(N-(2-amino-1-methyl-2-oxo-ethyl)-4-fluoro-anilino)thiazole-5-carbonyl]-N-benzyl-benzamide] is 140-fold lower in IC50: 859 nM for the first, 6 nM for the second.

Compared with `COc1ccc(C(=O)c2sc(N(c3ccc(F)c(F)c3)C(C)C(N)=O)nc2N)cn1` (single isomer, unassigned) [Example 52.1, 2-(N-[4-amino-5-(6-methoxypyridine-3-carbonyl)thiazol-2-yl]-3,4-difluoro-anilino)propanamide], `CC(C(N)=O)N(c1ccc(F)c(F)c1)c1nc(N)c(C(=O)c2ccc(C(F)(F)F)nc2)s1` (racemic) [Example 53, rac-2-(N-[4-amino-5-[6-(trifluoromethyl)pyridine-3-carbonyl]thiazol-2-yl]-3,4-difluoro-anilino)propanamide] is 2.4-fold lower in IC50: 72.7 nM for the first, 30.8 nM for the second.

`CC(C(N)=O)N(c1ccc(F)cc1)c1nc(N)c(C(=O)c2ccc(OC(C)(C)C(=O)NCc3ccc(Cl)cc3)cc2)s1` (racemic) [Example 273, rac-2-[4-[4-amino-2-(N-(2-amino-1-methyl-2-oxo-ethyl)-4-fluoro-anilino)thiazole-5-carbonyl]phenoxy]-N-[(4-chlorophenyl)methyl]-2-methyl-propanamide] and `CCOC(=O)C(C)(C)Oc1ccc(C(=O)c2sc(N(c3ccc(F)cc3)C(C)C(N)=O)nc2N)cc1` (racemic) [Example 39, Rac-ethyl 2-[4-[4-amino-2-(N-[2-amino-1-methyl-2-oxo-ethyl]-4-fluoro-anilino)thiazole-5-carbonyl]phenoxy]-2-methyl-propanoate] are within 1.5-fold of each other in IC50: 20 nM for the first, 19 nM for the second.

First: CC(C)NC(=O)c1ccc(C(=O)c2sc(N(c3ccc(F)cc3)C(C)C(N)=O)nc2N)cc1 (racemic) [Example 261, rac-4-[4-amino-2-(N-(2-amino-1-methyl-2-oxo-ethyl)-4-fluoro-anilino)thiazole-5-carbonyl]-N-isopropyl-benzamide]
Second: CC(C(N)=O)N(c1ccc(F)cc1)c1nc(N)c(C(=O)c2ccc(C(=O)NC[C@H](C)O)cc2)s1 (mixture of isomers) [Example 263, 4-[4-amino-2-(N-(2-amino-1-methyl-2-oxo-ethyl)-4-fluoro-anilino)thiazole-5-carbonyl]-N-[(2S)-2-hydroxypropyl]benzamide (mixture of stereoisomers)]
The IC50 of the first is 6-fold lower: 90 nM for the first, 539 nM for the second. The first is the more potent here.

First: CC(C(N)=O)N(c1ccc(F)cc1)c1nc(N)c(C(=O)c2ccc(OCC(=O)N3CCC(Cc4ccccc4)CC3)cc2)s1 (racemic) [Example 90, rac-2-(N-[4-amino-5-[4-[2-(4-benzyl-1-piperidyl)-2-oxo-ethoxy]benzoyl]thiazol-2-yl]-4-fluoro-anilino)propanamide]
Second: CC(C(N)=O)N(c1ccc(F)cc1)c1nc(N)c(C(=O)c2ccc(OCC(=O)N3CCOCC3)cc2)s1 (racemic) [Example 88, rac-2-(N-[4-amino-5-[4-(2-morpholino-2-oxo-ethoxy)benzoyl]thiazol-2-yl]-4-fluoro-anilino)propanamide]
The IC50 of the first is 11-fold lower: 63.3 nM for the first, 667 nM for the second. The first is the more potent here.

`C[C@H](C(N)=O)N(c1ccc(F)cc1)c1nc(N)c(C(=O)c2ccccc2)s1` [Example 61.2, (R)-2-(N-(4-amino-5-benzoyl-thiazol-2-yl)-4-fluoro-anilino)propanamide] and `Cc1ccc(N(c2nc(N)c(C(=O)c3ccccc3)s2)C(C)C(N)=O)cc1` (racemic) [Example 73, rac-2-(N-(4-amino-5-benzoyl-thiazol-2-yl)-4-methyl-anilino)propanamide] are within 1.5-fold of each other in IC50: 108 nM for the first, 148 nM for the second.

Going from `CC(C(N)=O)N(c1ccc(Cl)cc1)c1nc(N)c(C(=O)c2ccc(OC(F)F)cc2)s1` (single isomer, unassigned) [Example 47.1, 2-(N-[4-amino-5-[4-(difluoromethoxy)benzoyl]thiazol-2-yl]-4-chloro-anilino)propanamide] to `CC(C(N)=O)N(c1ccc(O)cc1)c1nc(N)c(C(=O)c2ccc(OC(F)F)cc2)s1` (single isomer, unassigned) [Example 291, 2-(N-[4-amino-5-[4-(difluoromethoxy)benzoyl]thiazol-2-yl]-4-hydroxy-anilino)propanamide (single enantiomer)], the IC50 falls from 1020 nM to 178 nM (5.7-fold). The second is the more potent here.

First: CC(C(N)=O)N(c1ccc(F)cc1)c1nc(N)c(C(=O)c2ccc(C(F)(F)F)nc2)s1 (single isomer, unassigned) [Example 29.1, 2-(N-[4-amino-5-[6-(trifluoromethyl)pyridine-3-carbonyl]thiazol-2-yl]-4-fluoro-anilino)propanamide]
Second: CC(C(N)=O)N(c1ccc(F)cc1)c1nc(N)c(C(=O)c2ccc(N(C)C)nc2)s1 (racemic) [Example 278, rac-2-(N-[4-amino-5-[6-(dimethylamino)pyridine-3-carbonyl]thiazol-2-yl]-4-fluoro-anilino)propanamide]
The IC50 of the first is 54-fold higher: 12500 nM for the first, 230 nM for the second.

First: CC(C(N)=O)N(c1ccc(F)c(F)c1)c1nc(N)c(C(=O)c2ccc(OC(F)F)cc2)s1 (racemic) [Example 49, rac-2-(N-[4-amino-5-[4-(difluoromethoxy)benzoyl]thiazol-2-yl]-3,4-difluoro-anilino)propanamide]
Second: CC(C(N)=O)N(c1ccc(OC(F)F)c(F)c1)c1nc(N)c(C(=O)c2ccc(Cl)cc2)s1 (racemic) [Example 206, rac-2-[N-[4-amino-5-(4-chlorobenzoyl)thiazol-2-yl]-4-(difluoromethoxy)-3-fluoro-anilino]propanamide]
The IC50 of the first is 17-fold lower: 2.76 nM for the first, 48 nM for the second.

Going from `CC(C(N)=O)N(c1cnn(C)c1)c1nc(N)c(C(=O)c2ccccc2)s1` (racemic) [Example 78, rac-2-[(4-amino-5-benzoyl-thiazol-2-yl)-(1-methylpyrazol-4-yl)amino]propanamide] to `CC(C(N)=O)N(c1ccc(C#N)c(F)c1)c1nc(N)c(C(=O)c2ccccc2)s1` (racemic) [Example 192, rac-2-(N-(4-amino-5-benzoyl-thiazol-2-yl)-4-cyano-3-fluoro-anilino)propanamide], the IC50 falls from 7220 nM to 224 nM (32-fold).

Going from `CC(C(N)=O)N(c1ccc(F)c(OC(F)F)c1)c1nc(N)c(C(=O)c2ccccc2)s1` (racemic) [Example 237, rac-2-[N-(4-amino-5-benzoyl-thiazol-2-yl)-3-(difluoromethoxy)-4-fluoro-anilino]propanamide] to `CC(C(N)=O)N(c1ccc(OC(F)(F)F)c(Cl)c1)c1nc(N)c(C(=O)c2ccccc2)s1` (racemic) [Example 211, rac-2-[N-(4-amino-5-benzoyl-thiazol-2-yl)-3-chloro-4-(trifluoromethoxy)anilino]propanamide], the IC50 falls from 749 nM to 183 nM (4.1-fold). The second is the more potent here.

First: COc1ccc(NC(=O)COc2ccc(C(=O)c3sc(N(c4ccc(F)cc4)C(C)C(N)=O)nc3N)cc2)cc1 (racemic) [Example 117, rac-2-(N-[4-amino-5-[4-[2-(4-methoxyanilino)-2-oxo-ethoxy]benzoyl]thiazol-2-yl]-4-fluoro-anilino)propanamide]
Second: COc1ccc(N(c2nc(N)c(C(=O)c3ccc(OC(F)F)cc3)s2)C(C)C(N)=O)cc1 (single isomer, unassigned) [Example 174.2, 2-(N-[4-amino-5-[4-(difluoromethoxy)benzoyl]thiazol-2-yl]-4-methoxy-anilino)propanamide]
The IC50 of the first is 250-fold lower: 14.9 nM for the first, 3790 nM for the second. The first is the more potent here.

Going from `CCC(C(N)=O)N(c1ccc(F)cc1)c1nc(N)c(C(=O)c2ccc(OC)cc2)s1` (racemic) [Example 70, rac-2-{[4-amino-5-(4-methoxybenzoyl)-1,3-thiazol-2-yl](4-fluorophenyl)amino}butanamide] to `COc1ccc(C(=O)c2sc(N(c3ccc(Cl)cc3)C(C)C(N)=O)nc2N)cc1` (single isomer, unassigned) [Example 58.1, 2-(N-[4-amino-5-(4-methoxybenzoyl)thiazol-2-yl]-4-chloro-anilino)propanamide], the IC50 falls from 196 nM to 8 nM (24-fold). The second is the more potent here.

First: CC(C(N)=O)N(c1ccc(F)cc1)c1nc(N)c(C(=O)c2ccc(C#N)cc2)s1 (single isomer, unassigned) [Example 33.2, 2-(N-[4-amino-5-(4-cyanobenzoyl)thiazol-2-yl]-4-fluoro-anilino)propanamide]
Second: CC(C(N)=O)N(c1ccc(F)cc1)c1nc(N)c(C(=O)c2ccc(Cl)cc2)s1 (single isomer, unassigned) [Example 38.1, 2-(N-[4-amino-5-(4-chlorobenzoyl)thiazol-2-yl]-4-fluoro-anilino)propanamide]
The IC50 of the first is 88-fold lower: 22.8 nM for the first, 2000 nM for the second.

Going from `CC(C(N)=O)N(c1ccc(F)cc1)c1nc(N)c(C(=O)c2ccc(N3CC4CCC(C4)C3)nc2)s1` (racemic) [Example 280, rac-2-(N-[4-amino-5-[6-(3-azabicyclo[3.2.1]octan-3-yl)pyridine-3-carbonyl]thiazol-2-yl]-4-fluoro-anilino)propanamide] to `CC(C(N)=O)N(c1ccc(Cl)c(F)c1)c1nc(N)c(C(=O)c2ccc(C(=O)NCCOC(F)(F)F)cc2)s1` (racemic) [Example 269, rac-4-[4-amino-2-(N-(2-amino-1-methyl-2-oxo-ethyl)-4-chloro-3-fluoro-anilino)thiazole-5-carbonyl]-N-[2-(trifluoromethoxy)ethyl]benzamide], the IC50 falls from 43 nM to 12 nM (3.6-fold).
